Test [1] concerns choroidal neovascularization (CNV) at Bruch's membrane rupture sites. The experiment in a line: Mouse model of laser-induced choroidal neovascularization (rupture of Bruch's membrane), CNV area on choroidal flat mounts. It counts as in vivo, C57BL/6J mice. Particulars: for amount of established CNV on day 14 vs vehicle and day 7 baseline (regression): single periocular injection at day 7; for amount of CNV on day 14 vs vehicle (suppression): single periocular injection at time of rupture.

The subject of test [2] is subretinal neovascularization. In words: Rhodopsin/VEGF transgenic mice, subretinal neovascularization. It counts as in vivo, rhodopsin/VEGF transgenic mice (V6 mice). Particulars: periocular injection at P7, measured P21; 100 μg CGC-11144, 1 mg CGC-11047, 750 μg CGC-11093. From the text:
Transgenic mice (V6 mice) in which the rhodopsin promoter drives expression of VEGF165 in photoreceptors have onset of VEGF expression at post-natal day 7 (P7) and soon after begin to develop neovascularization originating from the deep capillary bed that grows through the photoreceptor layer into the subretinal space. (Okamoto N et al., Amer. J. Pathol. 151: 281-91 (1997); Tobe T et al., Invest. Ophthalmol. Vis. Sci. 39: 180-188 (1998)). Hemizygous transgene positive mice were given a periocular injection of 100 μg of CGC-11144 (n=3), 1 mg of CGC-11047 (n=3), 750 μg of CGC-11093 (n=3) or vehicle (n=7) at P7. At post-natal day 21 (P21), mice were euthanized and the amount of subretinal neovascularization was quantified as previously described (Tobe, ibid.). Briefly, mice were anesthetized, perfused with fluorescein-labeled dextran, and the number of neovascular lesions on the outer surface of the retina and their total area were measured on retinal flat mounts by image analysis as described in Example 1.

The subject of test [3] is retinal neovascularization. The experiment in a line: Oxygen-induced ischemic retinopathy, retinal neovascularization. Particulars: 100 μg CGC-11144, 1 mg CGC-11047, 750 μg CGC-11093; for amount of retinal neovascularization at P20 vs vehicle (regression): daily periocular injections P17 to P20; for amount of retinal neovascularization at P17 vs vehicle (suppression): periocular injection at P12. The class given is in vivo, neonatal C57BL/6 mice. The protocol: Ischemic retinopathy can be produced in neonatal C57BL/6 mice as described (Smith, L. E et al., Invest. Opthalmol. Vis. Sci. 35: 101-111 (1994)) and serves as a model for retinopathy of prematurity (ROP). Post-natal day 7 (P7) mice and their mothers were placed in an airtight incubator and exposed to an atmosphere of 75±3% oxygen for 5 days. Incubator temperature was maintained at 23±2° C. and oxygen was continuously monitored with a PROOX model 110 oxygen controller (Reming Bioinstruments Co., Redfield, N.Y.). At post-natal day 12, mice were placed back in room air and were given a periocular injection of 3 μl containing 100 μg of CGC-11144 (n=4), 1 mg of CGC-11047 (n=4), 750 μg of CGC-11093 (n=4) or vehicle. On post-natal day 17 (P17) the treated and control mice were euthanized and the amount of retinal neovascularization was measured.
For measurement of retinal neovascularization, eyes were removed and fixed in 2% paraformaldehyde in phosphate buffered saline (PBS) for one hour and rinsed twice in 25% sucrose in PBS. Specimens were incubated in 25% sucrose in PBS overnight and embedded in OCT compound (Miles Diagnostics, Elkhart, Ind.),). 10 μm frozen sections were post-fixed for 15 minutes in 0.5% glutaraldehyde in PBS and washed in PBS. Sections were also histochemically stained with biotinylated Griffonia simplicifolia lectin B4 (GSA, Vector Laboratories, Burlingame, Calif.), which selectively binds to vascular cells. Slides were incubated in methanol/H2O2 for 10 minutes at 4° C., washed with 0.05 M Tris-buffered saline, pH 7.6 (TBS), and incubated for 30 minutes in 10% normal porcine serum. Slides were incubated 2 hours at room temperature with biotinylated GSA and after rinsing with 0.05M TBS, they were incubated with avidin coupled to peroxidase (Vector Laboratories, Burlingame, Calif.) for 30 minutes at room temperature. After being washed for 10 minutes with 0.05M TBS, slides were incubated with diaminobenzidine (Research Genetics, Huntsville, Ala.) to give a brown reaction product.
To perform quantitative assessments, 10 μm frozen serial sections were cut from the iris root on one side of the eye to the iris root on the opposite side of the eye and every tenth section was stained with GSA. Retinas were examined with an Axioskop microscope and images were digitized using a 3 CCD color video camera and a frame grabber. Image-Pro Plus software was used to delineate GSA-stained vascular cells above the internal limiting membrane and the total area of staining was measured.
To investigate the effect of these agents on regression of retinal neovascularization, ischemic retinopathy was induced and left untreated until P17, when the baseline amount of retinal neovascularization was measured in one group of mice. From post-natal days 17 to 20 (P17 to P20) the remainder of the mice were given daily periocular injections of 100 μg of CGC-11144 (n=4), 1 mg of CGC-11047 (n=4), 750 μg of CGC-11093 (n=4) or vehicle. On P20 the mice were euthanized and the amount of retinal neovascularization in the treated and control mice was measured as described above.

The mark [4] stands for this setting: 2 mg CGC-11047, 1.5 mg CGC-11093.
[5] abbreviates: 200 μg CGC-11144, 2 mg CGC-11047, 1.5 mg CGC-11093.
[6] abbreviates: single periocular injection one week prior to rupture, 200 μg CGC-11144, 2 mg CGC-11047, 1.5 mg CGC-11093.
Where [7] appears, read: single periocular injection three weeks before laser, 2 mg CGC-11047, 1.5 mg CGC-11093.
Setting [8] is: single periocular injection two weeks prior to rupture, 200 μg CGC-11144, 2 mg CGC-11047, 1.5 mg CGC-11093.

Molecules are shown by their SMILES. Entries after “also recorded” stand apart in the source; their conditions may differ.

Consider `NCCCC(N)(C(=O)O)C(F)F` (racemic) [DFMO, D,L-α-difluoromethyl-omithine, reference compound], for which, in test [1] (daily periocular injections days 7 to 14, 200 μg CGC-11144, 100 μg DFMO, or both), the “area of CNV vs day 7 baseline and vehicle fellow eyes (regression)” value is reported as “significant reduction in the area of CNV; also recorded: significantly less”.
`CCNCCCNC/C=C\CNCCCNCC` [CGC-11047]: in test [2], the “subretinal neovascularization vs vehicle” value was “significantly less subretinal neovascularization”. In addition, the “amount of retinal neovascularization at P20 vs vehicle (regression)” value in test [3] is listed as “significantly less neovascularization”. In addition, the “amount of retinal neovascularization at P17 vs vehicle (suppression)” value in test [3] was “significantly less”. In addition, the “amount of established CNV on day 14 vs vehicle and day 7 baseline (regression)” value in test [1] (setting [4]) is “less CNV than those treated with vehicle and less than the baseline amount of CNV”. Also, the “amount of CNV on day 14 vs vehicle (suppression)” value in test [1] (setting [5]) was “significantly reduced the amount of CNV”. The “amount of CNV vs vehicle (duration of effect)” value is recorded as “significant reduction of the amount of CNV” in test [1] (setting [6]), “no significant effect” in test [1] (setting [7]) and “significantly smaller amounts of CNV” in test [1] (setting [8]).
In the case of `CCNCCCCNCC1CC1CNCCCCNCC` (centres unmarked) [CGC-11093], the “subretinal neovascularization vs vehicle” value in test [2] is given as “significantly less subretinal neovascularization”. For the same compound, the “amount of retinal neovascularization at P20 vs vehicle (regression)” value in test [3] is “significantly less neovascularization”. In addition, the “amount of retinal neovascularization at P17 vs vehicle (suppression)” value in test [3] is given as “significantly less”. Moreover, in test [1] (setting [4]), the “amount of established CNV on day 14 vs vehicle and day 7 baseline (regression)” value is “less CNV than those treated with vehicle and less than the baseline amount of CNV”. In addition, in test [1] (setting [5]), the “amount of CNV on day 14 vs vehicle (suppression)” value is “significantly reduced the amount of CNV”. The “amount of CNV vs vehicle (duration of effect)” value is “significant reduction of the amount of CNV” in test [1] (setting [6]), “no significant effect” in test [1] (setting [7]) and “significantly smaller amounts of CNV” in test [1] (setting [8]).

Source of the values: US20060160906A1, “Polyamine analogs as therapeutic agents for ocular diseases” (priority 2004, published 2006).
